Source: patent EP1205473A1, “VESAMICOL PIPERAZINE DERIVATIVES AND DRUGS CONTAINING THE SAME” (DAIICHI RADIOISOTOPE LABORATORIES, LTD., priority 1999, dated 2001)
Like-named read-outs stand apart in the source and are kept apart here. One block for each compound: values may come before it.

Experiments:
adrenaline α1 receptors = experiment: Receptor binding test: inhibition of tritium-labeled prazosin binding to brain homogenate; parameters: species or system Male Wistar rats
vesamicol receptors [1] = biological target: T1, vesamicol receptors (Rattus norvegicus, UniProt Q62666); experiment: Inhibition experiment: inhibition of binding of radioactive-iodine-labeled DRC140 to P2 fractions; parameters: Synaptic vesicles were extracted and separated from the brain of a rat; from tissue; host or cells: rat brain without cerebellum: P2, crude synaptic vesicles, purified synaptic vesicles
T1 sequence (Q62666 1-530): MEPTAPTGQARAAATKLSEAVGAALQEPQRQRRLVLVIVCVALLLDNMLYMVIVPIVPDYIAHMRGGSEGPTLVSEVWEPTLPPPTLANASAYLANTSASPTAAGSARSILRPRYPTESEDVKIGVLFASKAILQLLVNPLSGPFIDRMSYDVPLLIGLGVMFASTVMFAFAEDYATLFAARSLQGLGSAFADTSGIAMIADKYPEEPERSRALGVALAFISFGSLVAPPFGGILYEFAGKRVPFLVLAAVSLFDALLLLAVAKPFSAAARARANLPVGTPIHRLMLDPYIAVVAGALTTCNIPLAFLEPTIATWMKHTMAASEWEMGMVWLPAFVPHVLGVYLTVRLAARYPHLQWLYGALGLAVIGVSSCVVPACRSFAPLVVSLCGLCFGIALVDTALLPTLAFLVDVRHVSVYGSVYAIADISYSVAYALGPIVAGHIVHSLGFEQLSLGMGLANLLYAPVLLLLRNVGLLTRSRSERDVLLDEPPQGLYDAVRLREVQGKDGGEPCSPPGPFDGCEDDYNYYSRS

vesamicol receptors [2] = biological target: T1, vesamicol receptors; experiment: Inhibition experiment: inhibition of binding of radioactive-iodine-labeled DRC140 to purified synaptic vesicle fractions; parameters: Synaptic vesicles were extracted and separated from the brain of a rat; from tissue; host or cells: rat brain without cerebellum: P2, crude synaptic vesicles, purified synaptic vesicles
sigma receptors = biological target: T2, sigma receptors (Cavia porcellus, UniProt Q60492); experiment: Receptor binding test: inhibition of tritium-labeled (+) pentazocine binding to brain homogenate; parameters: species or system male guinea pig
T2 construct: The brain was immediately extracted; The cerebellum was removed from the brain; from tissue; host or cells: guinea pig brain without cerebellum, membrane pellet
Description: (§1) Properties relating to binding of the vesamicol piperazine derivatives of the present invention to various receptors were examined as follows. Specifically, ligands which combine with each receptor were incubated together with homogenates prepared as follows.
To measure affinity to sigma receptors, tritium-labeled (+) pentazocine was added to a brain homogenate prepared as follows. The vesamicol piperazine derivatives synthesized in the Examples were added at various concentrations, and the mixture was incubated for two hours at room temperature.
(§2) B (%) =((1 0 0 × [U])^(∩))/([ I C50 (])^(∩) (+ [U])^(∩)) [formula] wherein B(%) is the proportion of specific binding in the total binding, n indicates a Hill coefficient, and U is the concentration of unbound ligand.
A male guinea pig was anesthetized with ether and was decapitated. The brain was immediately extracted. The cerebellum was removed from the brain. 10 mM Tris-sucrose buffer solution (0.32 M sucrose + 10 mM Tris-HCl (pH 7.4)) was added in the amount of 10 ml/g of the tissue. The mixture was homogenized by a potter-type homogenizer for 6-10 strokes. The homogenate was centrifuged at 1,000 x g for 10 minutes at 4°C and the supernatant liquid was collected. The resulting pellets were suspended in the Tris-sucrose buffer solution at the concentration of 2 ml/g, followed by centrifugation at 1,000 x g for 10 minutes at 4°C. The supernatant liquids obtained by the two centrifugation at 1,000 x g were combined and centrifuged at 31,000 x g for 15 minutes at 4°C. The resulting pellets were suspended in a 10 mM Tris-HCl buffer solution (pH 7.4) at a concentration of 3 ml/g of tissue and incubated for 30 minutes at 25°C. After incubation, the suspension was centrifuged at 31,000 x g for 15 minutes at 4°C. The pellets obtained were suspended in a 10 mM Tris-HCl buffer solution (pH 7.4) to make a final concentration of 1.53 ml/g of tissue. The suspension was homogenized by a potter-type homogenizer for 5 strokes. The homogenate was stored at -80°C until the start of the experiment.

[3] = biological target: T3, serotonin 5-HT1A receptors (Rattus norvegicus, UniProt P19327); experiment: Receptor binding test: inhibition of tritium-labeled 8-hydroxy-DPAT binding to brain (hippocampus) homogenate; parameters: species or system Male Wistar rats
T3 construct: The hippocampi were immediately collected from the brains; from tissue; host or cells: rat hippocampus membranes
T3 sequence (P19327 1-422): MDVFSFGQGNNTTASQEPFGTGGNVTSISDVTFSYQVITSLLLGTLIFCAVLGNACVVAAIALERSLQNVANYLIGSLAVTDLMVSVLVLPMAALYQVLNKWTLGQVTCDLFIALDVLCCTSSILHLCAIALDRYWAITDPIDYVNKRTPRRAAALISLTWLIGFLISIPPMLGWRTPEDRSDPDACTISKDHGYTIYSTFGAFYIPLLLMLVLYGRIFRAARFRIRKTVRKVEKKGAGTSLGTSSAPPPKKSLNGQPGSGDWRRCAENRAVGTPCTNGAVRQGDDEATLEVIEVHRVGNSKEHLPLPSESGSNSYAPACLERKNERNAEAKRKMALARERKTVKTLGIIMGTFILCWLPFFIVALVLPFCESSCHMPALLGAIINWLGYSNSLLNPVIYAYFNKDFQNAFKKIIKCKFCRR
Description: as §1
To measure affinity to serotonin 5-HT1A receptors, tritium-labeled 8-hydroxy-DPAT was added to a brain homogenate prepared as follows. The vesamicol piperazine derivatives synthesized in the Examples were added at various concentrations, and the mixture was incubated for 30 minutes at 37°C. To measure affinity to serotonin 5-HT2A receptors, tritium-labeled ketanserin was added to a brain homogenate prepared as follows. The vesamicol piperazine derivatives synthesized in the Examples were added at various concentrations, and the mixture was incubated for 15 minutes at 37°C.
as §2
Male Wistar rats were anesthetized with ether and were decapitated and the brains quickly extracted. The hippocampi were immediately collected from the brains. A 40-fold (vol/wt) amount of ice cooled 50 mM Tris-HCl buffer (pH 7.4) was added to the hippocampi. The mixture was homogenized using a potter-type homogenizer. The homogenate was centrifuged at 40,000 x g for 20 minutes. The supernatant liquid was removed and the resulting pellets were suspended in a 40-fold amount of Tris-HCl buffer solution. The suspension was centrifuged and the Tris buffer solution was again added to the pellets. This procedure was repeated twice. The product thus obtained was homogenized using a 40-fold amount of Tris-HCl buffer solution and incubated for 10 minutes at 37°C to remove endogenic 5-HT. The cell membrane was collected by centrifugation, washed twice, and suspended in a 10-fold amount of 50 mM Tris-HCl buffer solution (pH 7.4). The suspension thus obtained was stored at -80°C until the start of the binding experiment.

vesamicol receptors [4] = biological target: T1, vesamicol receptors; experiment: Receptor binding test: inhibition of I-125 labeled 5-iodobenzo vesamicol binding to brain homogenate; parameters: from tissue; host or cells: rat brain without cerebellum, P2 fraction; species or system Male Wistar rats; conditions: for IC50: Inhibitive concentration at 50% (IC50), Vesamicol receptor, Table 5, incubated three hours at 37°C, no unit printed in table (b19 gives nM for DRC140)
Description: as §1
To measure affinity of vesamicol receptors, I-125 labeled 5-iodobenzo vesamicol (synthesized and labeled according to Jung et al., J. Med. Chem. 33, 2065-2068, 1990) was added to a brain homogenate prepared as follows. The vesamicol piperazine derivatives synthesized in the Examples were added at various concentrations. The mixture was then incubated for three hours at 37°C.
as §2
Male Wistar rats were anesthetized with ether and were decapitated. The brains were immediately extracted. The cerebella were removed from the brains. 0.32 M sucrose (containing 4 mM HEPES (pH 7.4)) in an amount of five times the wet amount (weight) of this sample was added. The sample was homogenized by a potter-type homogenizer for 12 strokes while cooling with ice. 0.32 M sucrose in the same amount as the homogenate (total: 10 times the wet amount of the original sample) was added. The suspension thus obtained was centrifuged for 5 minutes at 1,000 x g. The precipitate was removed. The supernatant liquid was centrifuged at 9,200 x g for 15 minutes to separate the precipitate from the supernatant liquid. P2 fractions were suspended in a Tris-HCl buffer (pH 7.4) for binding experiments and stored at -80°C until the start of the binding experiment.

vesamicol receptors [5] = biological target: T1, vesamicol receptors; experiment: Saturation experiment of I-125 labeled DRC140 on brain cell fractions (Scatchard plots); type: binding; parameters: Synaptic vesicles were extracted and separated from the brain of a rat; from tissue; host or cells: rat brain without cerebellum: P2, crude synaptic vesicles, purified synaptic vesicles; conditions: for Bmax / Kd: average value ± standard deviation
[6] = Inhibitive concentration at 50% (IC50), Sigma α-1 receptor
[7] = inhibitive concentration at 50% (IC50), Receptor Vesamicol
[8] = inhibitive concentration at 50% (IC50), Receptor Sigma-1

T2 sequence (Q60492 whole entry): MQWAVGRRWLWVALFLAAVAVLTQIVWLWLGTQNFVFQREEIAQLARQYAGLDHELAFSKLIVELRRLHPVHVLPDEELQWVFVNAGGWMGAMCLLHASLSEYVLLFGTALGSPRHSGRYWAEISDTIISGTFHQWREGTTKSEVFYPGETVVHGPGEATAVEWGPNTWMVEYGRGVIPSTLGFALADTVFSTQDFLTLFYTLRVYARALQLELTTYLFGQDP

Compound: O[C@@H]1Cc2cccc(I)c2C[C@H]1N1CCC(c2ccccc2)CC1 [5-iodobenzovesamicol]
IC50 (adrenaline α1 receptors; applicant's own research, read-out: affinity to an α1-receptor (IC50)): 6.74 nM

IC50 (vesamicol receptors [1]; Table 7, P2 fractions, inhibition of radioactive-iodine-labeled DRC140 binding, Binding site names the inhibitor's own site, read-out: IC50 (nM) Average ± S.D): 1110 ± 187 nM
inhibitive action on P2 fractions (vesamicol receptors [1]; result in words): weak inhibitive action
IC50 (vesamicol receptors [2]; Table 8, purified synaptic vesicle fractions, inhibition of radioactive-iodine-labeled DRC140 binding, read-out: IC50 (nM) Average ± S.D): 1200 ± 43 nM
Compound: O=C(c1ccc(F)cc1)C1CCN(CCn2c(=O)[nH]c3ccccc3c2=O)CC1 [Ketanserin, reference compound]
inhibitive action on purified synaptic vesicles (vesamicol receptors [2]; result in words): almost the same degree of weak inhibitive action

Compound: Cc1ccccc1N1CCN([C@@H]2Cc3c(I)cccc3C[C@H]2O)CC1 (single isomer, unassigned) [DRE342, (-)-trans-5-iodo-2-hydroxy-3-[4-[2-methylphenyl]piperazinyl]tetralin]
IC50 (sigma receptors; [6]): 50 nM
IC50 [3]: 512 nM
IC50 (vesamicol receptors [4]): 0.23 nM
IC50 (vesamicol receptors [1]; [7]): 0.56 nM

Compound: OC1Cc2cccc([125I])c2CC1N1CCN(c2ccccc2)CC1 (stereo not drawn) [I-125 labeled DRC140]
Bmax (vesamicol receptors [5]; Crude synaptic vesicles): 821±78.6 fmol/mg protein
Kd (vesamicol receptors [5]; Crude synaptic vesicles): 0.34 ± 0.03 nM
Kd (vesamicol receptors [5]; P2 fraction): 0.41 ± 0.11 nM
Kd (vesamicol receptors [5]; Purified synaptic vesicles): 0.31 nM
Bmax (vesamicol receptors [5]; P2 fraction, 3 hours at 37°C): 187±58.3 fmol/mg protein
Bmax (vesamicol receptors [5]; Purified synaptic vesicles): 1751±92.6 fmol/mg protein
increase in the Bmax of purified synaptic vesicles relative to P2 fractions (vesamicol receptors [5]; purified by density gradient centrifugation versus P2 fractions): approximately nine

Compound: Cc1ccc(C)c(N2CCN([C@@H]3Cc4c(I)cccc4C[C@H]3O)CC2)c1 (single isomer, unassigned) [DRE351, (+)-trans-5-iodo-2-hydroxy-3-[4-[2,5-dimethylphenyl]piperazinyl]tetralin]
IC50 (sigma receptors; [6]): 4500 nM
IC50 [3]: 664 nM
IC50 (vesamicol receptors [4]): 7.11 nM
IC50 (vesamicol receptors [1]; [7]): 11.4 nM

IC50 (adrenaline α1 receptors; read-out: inhibitive concentration at 50% (IC50), Receptor Alpha-1, Table 9, high purity derivatives, unit inferred): 421 nM
IC50 (sigma receptors; read-out: inhibitive concentration at 50% (IC50), Receptor Sigma-1, Table 9, high purity derivatives, unit inferred): 4.27 nM
IC50 ([3]; read-out: inhibitive concentration at 50% (IC50), Receptor 5-HT1A, Table 9, high purity derivatives, unit inferred): 16600 nM
IC50 (vesamicol receptors [1]; read-out: inhibitive concentration at 50% (IC50), Receptor Vesamicol, Table 9, high purity derivatives (HPLC purified), I-125 labeled DRC140, P2 fractions, 3 hours at 37°C, unit inferred): 0.89 nM
Compound: m-(iodobenzyl)trozamicol [(+)-MIBT, reference compound]

Compound: Cc1cccc(N2CCN([C@@H]3Cc4c(I)cccc4C[C@H]3O)CC2)c1C (racemic) [DRE354, (±)-trans-5-iodo-2-hydroxy-3-[4-[2,3-dimethylphenyl]piperazinyl]tetralin]
IC50 (sigma receptors; [6]): 428 nM
IC50 (sigma receptors; [8]): 4560 nM
IC50 (vesamicol receptors [4]): 1.41 nM
IC50 (vesamicol receptors [1]; [7]): 1.67 nM

IC50 (adrenaline α1 receptors; read-out: Inhibitive concentration at 50% (IC50), Adrenaline α1 receptor, Table 5, incubated 30 minutes at 37°C, unit inferred): 402 nM
IC50 (adrenaline α1 receptors; text of disclosure, adrenaline-type nerve system receptor, read-out: IC50 value for α1-receptor): 402 nM
greater affinity to vesamicol receptors (versus α1-receptor) (vesamicol receptors [4]; ratio of IC50 α1-receptor / vesamicol receptors): 190 times
activity to the vesamicol receptor as high as the activity to the sigma receptor (vesamicol receptors [4]; ratio vesamicol receptor versus sigma receptor): 4,000 times
time to reach equilibrium (vesamicol receptors [5]; at 37°C): 3 h
Compound: O[C@@H]1Cc2cccc(I)c2C[C@H]1N1CCN(c2ccccc2)CC1 [DRC140, (-)-trans-5-iodo-2-hydroxy-3-(4-phenyl-1-piperazinyl)tetralin]

Compound: O[C@@H]1Cc2cc(I)ccc2C[C@H]1N1CCN(c2ccccc2)CC1 (racemic) [DRG449, (±)-trans-7-iodo-2-hydroxy-3-[4-phenylpiperazinyl]tetralin]
IC50 (sigma receptors; [8]): 348 nM
IC50 [3]: 4770 nM
IC50 (vesamicol receptors [1]; [7]): 0.55 nM

Compound: Cc1ccc(N2CCN([C@@H]3Cc4c(I)cccc4C[C@H]3O)CC2)cc1 (racemic) [DRF381, (±)-trans-5-iodo-2-hydroxy-3-[4-[4-methylphenyl]piperazinyl]tetralin]
IC50 (sigma receptors; [8]): 4780 nM
IC50 (vesamicol receptors [4]): 13.9 nM
IC50 (vesamicol receptors [1]; [7]): 14.7 nM
